# Data from patent publication US20260007133A1, “HERBICIDAL COMPOSITION COMPRISING AZINE COMPOUNDS” (BASF SE, priority 2022, published 2026).
# Values joined by “and” are separate entries in the source; they are usually repeats but may differ in a detail not shown here. Identical values can stand only once. Like-named read-outs stand apart in the source and are kept apart here.
# What was measured:
# Type in all cases: in vivo
# [1] = tested on: Ambrosia artemisiifolia; assay: Greenhouse pre-emergence (PRE) herbicidal test on AMBEL; details: Ambrosia artemisiifolia, pre-emergence
# [2] = tested on: Galium aparine; assay: Greenhouse pre-emergence (PRE) herbicidal test on GALAP; details: Galium aparine, pre-emergence, PRE, GALAP
# Description: The culture containers used were plastic pots containing loamy sand with approximately 3.0% of humus as substrate. The seeds of the test plants were sown separately for each species.
# For the pre-emergence treatment, the active compounds, suspended or emulsified in water, were applied directly after sowing by means of finely distributing nozzles. The containers were irrigated gently to promote germination and growth and subsequently covered with transparent plastic hoods until the plants had rooted. This cover caused uniform germination of the test plants unless this was adversely affected by the active compounds.
# Depending on the species, the plants were kept at 10-25° C. and 20-35° C., respectively.
# The test period extended over 2 to 4 weeks. During this time, the plants were tended and their response to the individual treatments was evaluated.
# Evaluation was carried out using a scale from 0 to 100. 100 means no emergence of the plants, or complete destruction of at least the above-ground parts, and 0 means no damage or normal course of growth. A good herbicidal activity is given at values of at least 70, and very good herbicidal activity is given at values of at least 85.
# If not stated differently, the respective components A and B, and if appropriate, C were formulated as a 5% by weight strength emulsion concentrate and, with addition of the amount of solvent system, introduced into the spray liquor used for applying the active compound.
# As indicated application was either post emergent (POST) at the respective growth stage (GS) of the weed (BBCH code), or pre-emergent (PRE).
# Assessment was 20 days after treatment (DAT).
# [3] = tested on: Ipomoea hederacea; assay: Greenhouse pre-emergence (PRE) herbicidal test on IPOHE; details: Ipomoea hederacea, pre-emergence; for inhibition at 8 g/ha: use rate 8 gai/ha
# In short: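 Seeds sown per species in pots of loamy sand with approx. 3.0% humus; compounds suspended or emulsified in water were sprayed via fine nozzles directly after sowing. Pots were watered and hooded until rooted, held at 10-25° C. or 20-35° C. by species, and scored 0–100 (100 = no emergence/complete destruction) 20 DAT.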
# [4] = tested on: Abutilon theophrasti; assay: Greenhouse post-emergence (POST) herbicidal test on ABUTH; details: Abutilon theophrasti, post-emergence; for pest or weed control at 2 g/ha: I-3 solo 2 gai/ha
# In short: (§1)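 Weeds grown in loamy sand (~3.0% humus) to 3–15 cm were sprayed post-emergence with compounds suspended or emulsified in water, formulated as 5% emulsion concentrates. Plants were kept at 10-25 °C or 20-35 °C by species. Damage was scored 0–100 (100 = complete destruction) at 20 DAT.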
# [5] = tested on: Digitaria sanguinalis; assay: Greenhouse post-emergence (POST) herbicidal test on DIGSA; details: for pest or weed control at 2 g/ha: I-3 solo 2 gai/ha
# In short: as §1
# [6] = tested on: Euphorbia heterophylla; assay: Greenhouse post-emergence (POST) herbicidal test on EPHHL; details: Euphorbia heterophylla, post-emergence; for inhibition at 2 g/ha: use rate 2 gai/ha; for inhibition at 4 g/ha: use rate 4 gai/ha; for inhibition at 8 g/ha: use rate 8 gai/ha
# In short: as §1
# [7] = tested on: Geranium pusillum; assay: Greenhouse post-emergence (POST) herbicidal test on GERPU; details: for inhibition at 2 g/ha: use rate 2 gai/ha; for inhibition at 4 g/ha: use rate 4 gai/ha
# In short: as §1
# [8] = tested on: Ipomoea hederacea; assay: Greenhouse post-emergence (POST) herbicidal test on IPOHE; details: Ipomoea hederacea, post-emergence
# In short: as §1
# [9] = tested on: AMAPA; assay: Greenhouse pre-emergence (PRE) herbicidal test on AMAPA; details: pre-emergence
# [10] = 480 h, POST, EPHHL, 20 DAT, read-out: solo application % activity
compound,measurement,setting,value
COc1c(Cl)cc(F)c(F)c1Nc1nc(N)nc(C(C)(C)F)n1 [Compound I-3],inhibition at 2 g/ha,"[1]; 240 h, PRE, use rate 2 gai/ha, 10 DAT, read-out: % activity",10%
same,inhibition at 8 g/ha,"[1]; 240 h, PRE, use rate 8 gai/ha, 10 DAT, read-out: % activity",65%
same,inhibition at 2 g/ha,"[1]; 480 h, AMBEL PRE, 20 DAT, use rate 2 gai/ha, read-out: % activity",50%
same,inhibition at 2 g/ha,"[1]; 480 h, PRE, AMBEL, 2 gai/ha, 20 DAT, read-out: % activity solo application",10%
same,inhibition at 8 g/ha,"[1]; 480 h, PRE, AMBEL, 8 gai/ha, 20 DAT, read-out: % activity solo application",45%
same,inhibition at 2 g/ha,"[1]; 480 h, PRE, AMBEL, use rate 2 gai/ha, 20 DAT, read-out: solo application % activity",10%
same,inhibition at 8 g/ha,"[1]; 480 h, PRE, AMBEL, use rate 8 gai/ha, 20 DAT, read-out: solo application % activity",45%
same,inhibition at 8 g/ha,"[1]; 480 h, PRE, use rate 8 gai/ha, 20 DAT, read-out: % activity",90%
same,inhibition at 4 g/ha,"[1]; PRE, AMBEL, use rate 4 gai/ha",25%
same,inhibition at 2 g/ha,[2]; use rate 2 gai/ha,15%
same,inhibition at 8 g/ha,[2]; use rate 8 gai/ha,75%
same,inhibition at 4 g/ha,"[3]; 480 h, PRE, IPOHE, use rate 4 gai/ha, 20 DAT",5%
same,inhibition at 8 g/ha,"[3]; 480 h, PRE, IPOHE, 20 DAT",30%
same,inhibition at 16 g/ha,"[3]; 480 h, PRE, IPOHE, use rate 16 gai/ha, 20 DAT",40%
same,inhibition at 32 g/ha,"[3]; 480 h, PRE, IPOHE, use rate 32 gai/ha, 20 DAT",40%
same,inhibition at 8 g/ha,[3]; IPOHE PRE,35%
same,pest or weed control at 2 g/ha,"[4]; 432 h, POST, ABUTH, 18 DAT",35%
same,pest or weed control at 8 g/ha,"[4]; 432 h, POST, ABUTH, I-3 solo 8 gai/ha, 18 DAT",65%
same,pest or weed control at 8 g/ha,"[4]; 480 h, POST, 8 gai/ha, 20 DAT",50%
same,inhibition at 2 g/ha,"[4]; 480 h, POST, ABUTH, 2 gai/ha, 20 DAT, read-out: % activity solo application",10%
same,pest or weed control at 2 g/ha,"[4]; 480 h, POST, ABUTH, 20 DAT",50%
same,pest or weed control at 8 g/ha,"[4]; 480 h, POST, ABUTH, I-3 solo 8 gai/ha, 20 DAT",80%
same,inhibition at 2 g/ha,"[4]; 480 h, POST, ABUTH, use rate 2 gai/ha, 20 DAT, read-out: solo application % activity",10%
same,inhibition at 4 g/ha,"[4]; 480 h, POST, ABUTH, use rate 4 gai/ha, 20 DAT",10%
same,inhibition at 16 g/ha,"[4]; 480 h, POST, ABUTH, use rate 16 gai/ha, 20 DAT",50%
same,inhibition at 2 g/ha,"[4]; ABUTH POST, use rate 2 gai/ha, read-out: % activity",20%
same,inhibition at 8 g/ha,"[4]; ABUTH POST, use rate 8 gai/ha, read-out: % activity",85%
same,inhibition at 2 g/ha,"[4]; POST, ABUTH, use rate 2 gai/ha, read-out: % activity",30%
same,% activity,"[5]; DIGSA POST, use rate 2 gai/ha",0%
same,% activity,"[5]; DIGSA POST, use rate 8 gai/ha",75% and 50%
same,inhibition at 2 g/ha,"[5]; Digitaria sanguinalis, post-emergence, 432 h, POST, DIGSA, 2 gai/ha, 18 DAT, read-out: % activity solo application",10%
same,inhibition at 8 g/ha,"[5]; Digitaria sanguinalis, post-emergence, 432 h, POST, DIGSA, 8 gai/ha, 18 DAT, read-out: % activity solo application",10%
same,pest or weed control at 2 g/ha,"[5]; Digitaria sanguinalis, post-emergence, 432 h, POST, DIGSA, 18 DAT",10%
same,pest or weed control at 8 g/ha,"[5]; Digitaria sanguinalis, post-emergence, 432 h, POST, DIGSA, I-3 solo 8 gai/ha, 18 DAT",10%
same,inhibition at 8 g/ha,"[5]; Digitaria sanguinalis, post-emergence, 480 h, DIGSA POST, 20 DAT, use rate 8 gai/ha, read-out: % activity",40%
same,pest or weed control at 8 g/ha,"[5]; Digitaria sanguinalis, post-emergence, 480 h, POST, 8 gai/ha, 20 DAT",40%
same,inhibition at 8 g/ha,"[5]; Digitaria sanguinalis, post-emergence, 480 h, POST, DIGSA, 8 gai/ha, 20 DAT, read-out: % activity solo application",85%
same,pest or weed control at 2 g/ha,"[5]; Digitaria sanguinalis, post-emergence, 480 h, POST, DIGSA, 20 DAT",5%
same,inhibition at 8 g/ha,"[5]; Digitaria sanguinalis, post-emergence, 480 h, POST, DIGSA, use rate 8 gai/ha, 20 DAT, read-out: solo application % activity",10%
same,solo application % activity,"[5]; POST, DIGSA, use rate 2 gai/ha, 20 DAT",0%
same,inhibition at 2 g/ha,"[6]; 480 h, EPHHL POST, 20 DAT, read-out: % activity",25%
same,pest or weed control at 8 g/ha,"[6]; 480 h, POST, 8 gai/ha, 20 DAT",60%
same,inhibition at 2 g/ha,[6]; [10],20%
same,inhibition at 4 g/ha,"[6]; 480 h, POST, EPHHL, 20 DAT",65%
same,inhibition at 8 g/ha,[6]; [10],50%
same,inhibition at 8 g/ha,"[6]; EPHHL POST, read-out: % activity",60%
same,inhibition at 4 g/ha,"[6]; POST, EPHHL",60%
same,% activity,"[7]; GERPU POST, use rate 8 gai/ha",50%
same,pest or weed control at 2 g/ha,"[7]; Geranium pusillum, post-emergence, 432 h, POST, GERPU, I-3 solo 2 gai/ha, 18 DAT",25%
same,inhibition at 2 g/ha,"[7]; Geranium pusillum, post-emergence, 480 h, GERPU POST, 20 DAT, read-out: % activity",25%
same,pest or weed control at 2 g/ha,"[7]; Geranium pusillum, post-emergence, 480 h, POST, 2 gai/ha, 20 DAT",10%
same,pest or weed control at 8 g/ha,"[7]; Geranium pusillum, post-emergence, 480 h, POST, 8 gai/ha, 20 DAT",75%
same,pest or weed control at 2 g/ha,"[7]; Geranium pusillum, post-emergence, 480 h, POST, GERPU, I-3 solo 2 gai/ha, 20 DAT",20%
same,pest or weed control at 8 g/ha,"[7]; Geranium pusillum, post-emergence, 480 h, POST, GERPU, I-3 solo 8 gai/ha, 20 DAT",10%
same,inhibition at 4 g/ha,"[7]; Geranium pusillum, post-emergence, 480 h, POST, GERPU, 20 DAT",0%
same,inhibition at 16 g/ha,"[7]; Geranium pusillum, post-emergence, 480 h, POST, GERPU, use rate 16 gai/ha, 20 DAT",10%
same,inhibition at 2 g/ha,"[7]; Geranium pusillum, post-emergence, GERPU POST, read-out: % activity",30%
same,inhibition at 8 g/ha,"[7]; Geranium pusillum, post-emergence, GERPU POST, use rate 8 gai/ha, read-out: % activity",70%
same,inhibition at 2 g/ha,"[7]; Geranium pusillum, post-emergence, POST, GERPU, read-out: % activity",20%
same,inhibition at 4 g/ha,"[7]; Geranium pusillum, post-emergence, POST, GERPU",40%
same,pest or weed control at 8 g/ha,"[8]; 480 h, POST, 8 gai/ha, 20 DAT",90%
same,inhibition at 2 g/ha,"[8]; 480 h, POST, IPOHE, 2 gai/ha, 20 DAT, read-out: % activity solo application",80%
same,inhibition at 8 g/ha,"[8]; 480 h, POST, IPOHE, 8 gai/ha, 20 DAT, read-out: % activity solo application",70%
same,inhibition at 2 g/ha,"[8]; IPOHE POST, use rate 2 gai/ha, read-out: % activity",65%
same,inhibition at 1 g/ha,"[9]; 240 h, use rate 1 gai/ha, 10 DAT",40%
same,inhibition at 2 g/ha,"[9]; 240 h, use rate 2 gai/ha, 10 DAT",60%
same,inhibition at 8 g/ha,"[9]; 480 h, use rate 8 gai/ha, 20 DAT",60%
